Experimental findings from paper PMC11513923, “Discovery of ZLC491 as a Potent, Selective, and Orally Bioavailable CDK12/13 PROTAC Degrader” (Journal of Medicinal Chemistry, 2024) are described below.

The test system of one data set is CCNK. The data set can be described thus: TMT-labeled quantitative proteomics in MDA-MB-231 cells. The data set is classed as cell-based, Homo sapiens. The note with it: 8 h. Here is the method: The global proteomic selectivity of ZLC491 was investigated by using the tandem mass tag (TMT) labeled mass-spectrometry. […] CDK13 was not detected in either degrader treatment groups or DMSO control groups, likely due to its insufficient cellular expression for mass spectrometry detection.
Figure 5 ZLC491 degraded CDK12/13 with high selectivity. (A) Global proteomic analysis of ZLC491 in MDA-MB-231 cells after 8 h treatment of DMSO or 2 μM ZLC491; (B) mass-spec quantification of CDKs changes; (C) immunoblotting of target protein degradation in samples for proteomic analysis.
MDA-MB-231 cells were seeded at 8 × 10^5 cells in 6 cm dishes 24 h before treating with 2 μM ZLC491 or DMSO in quadruplicate or triplicate for 8 h. […] Samples were quantified using a micro-BCA protein assay kit (Thermo Fisher Scientific) and 600 μg of each sample was processed and digested using the filter aided sample preparation (FASP) method followed by alkylation with iodoacetamide and digestion with trypsin. […]
The fractions were analyzed sequentially on an Orbitrap Fusion Lumos Mass Spectrometer (Thermo Scientific) coupled to a NanoLC-1200 UHPLC system (Thermo Scientific) with C18 capillary column. […] MS3 precursor were fragmented by HCD and analyzed with Orbitrap at NCE 65, AGC 1E5, resolution 60000. […]

Another data set is described as follows: Pharmacokinetics in rats. The data set is classed as in vivo, rat. The note with it: male, Sprague-Dawley, rat, plasma. Here is the method: We further evaluated the in vivo PK properties of compound ZLC491 and the counterpart 4m (without F substitution) in rats, and the results were summarized in Table 2. […] The PK profiles of F-containing compound ZLC491 were further improved.
The pharmacokinetic investigation was taken by Shanghai Medicilon Inc. (Project Code: 26048-23001-NG). Sprague–Dawley male rats (Specific pathogen Free (SPF), provided by Zhejiang Vital River Laboratory Animal Technology Co. Ltd.) were dosed with ZLC491 solution formulation (5% DMSO, 10% Solutol, 85% normal saline, 2.5 mg/kg for intravenous dose, 10 mg/kg for oral dose) or compound 4m solution formulation (5% DMSO, 10% Solutol, 85% (20%HP-β-CD), 2.5 mg/kg for intravenous dose, 10 mg/kg for oral dose). Blood samples were collected at 0.083, 0.25, 0.5, 1, 2, 4, 8, and 24 h in intravenous administration, 0.25, 0.5, 1, 2, 4, 6, 8, and 24 h in oral administration. The blood samples were collected from sets of three rats at each time point in labeled microcentrifuge tubes containing heparin sodium as an anticoagulant. Plasma samples were separated by centrifugation (2–8 °C, 6800g for 6 min) within 1 h and stored below −80 °C until bioanalysis. All samples were processed for analysis by precipitation using acetonitrile and analyzed with a partially validated LC/MS/MS method. Pharmacokinetic parameters were calculated using the noncompartmental analysis tool of WinNonlin Enterprise software.

Structures are written as SMILES.

With `N#Cc1ccc(N[C@H]2CC[C@H](N(C(=O)NCc3ccccc3)c3ccc(N4CCN(C5CCN(c6cc7c(cc6F)C(=O)N(C6CCC(=O)NC6=O)C7=O)CC5)CC4)cc3)CC2)nc1` (stereo partly shown) [ZLC491, 3-Benzyl-1-((1r,4r)-4-((5-cyanopyridin-2-yl)amino)cyclohexyl)-1-(4-(4-(1-(2-(2,6-dioxopiperidin-3-yl)-6-fluoro-1,3-dioxoisoindolin-5-yl)piperidin-4-yl)piperazin-1-yl)phenyl)urea], in the data set on CCNK (2 μM ZLC491 vs DMSO), the “FC_4-91 (CCNK)” value was found to be 0.4255. The “CCNK level in global proteomics” value in the data set on CCNK (2 μM) is reported as “significantly decreased”. In “Pharmacokinetics in rats” (iv, i.v. 2.5 mg/kg), this compound gave an AUC(0-t) at 24 h of 6820 ng·h/mL, a Cmax at 24 h of 4590 ng/mL, a clearance at 24 h of 6.38 mL/min/kg and a half-life at 24 h of 148 min. The compound also registered a bioavailability at 24 h in the data set “Pharmacokinetics in rats” (oral bioavailability, p.o. 10 mg/kg vs i.v. 2.5 mg/kg) of 46.8%. In the data set “Pharmacokinetics in rats” (po, p.o. 10 mg/kg), this compound showed an AUC(0-t) at 24 h of 12800 ng·h/mL, a Cmax at 24 h of 1310 ng/mL and a half-life at 24 h of 175 min.
